Laboratory results reported in ChEMBL document CHEMBL4334533, “Design, synthesis, and validation of novel nitrogen-based chalcone analogs against triple negative breast cancer” (Eur J Med Chem, 2020).
Activity calls are given as the source filed them. No cut-off for these calls is given here.

How the values were obtained:
MDA-MB-231 [1] = assay: Antimigratory activity in human MDA-MB-231 cells assessed as wound diameter at 5 uM measured after 24 hrs by microscopic analysis; assay type: functional, cell-based
MDA-MB-231 [2] = assay: Antimigratory activity in human MDA-MB-231 cells assessed as inhibition of cell motility after 24 hrs by microscopic analysis; assay type: functional, cell-based; details: MDA-MB-231, 24 h
[3] = Cytotoxicity against E6/E7 immortalized human HNME cells assessed as inhibition of cell growth measured after 48 hrs by microplate reader analysis; assay type: cell-based; details: read-out: LD50
MDA-MB-231 [4] = assay: Growth inhibition in human MDA-MB-231 cells at 10 uM after 48 hrs by MTT assay; assay type: functional, cell-based
MCF7 [5] = assay: Growth inhibition in human MCF7 cells at 10 uM after 48 hrs by MTT assay; assay type: functional, cell-based
MDA-MB-231 [6] = assay: Induction of morphological changes in human MDA-MB-231 cells assessed as mesenchymal-epithelial transition at 10 uM by inverted microscopic analysis; assay type: functional, cell-based
MDA-MB-468 [7] = assay: Induction of morphological changes in human MDA-MB-468 cells assessed as mesenchymal-epithelial transition at 10 uM by inverted microscopic analysis; assay type: functional, cell-based
MCF7 [8] = assay: Induction of morphological changes in human MCF7 cells assessed as mesenchymal-epithelial transition at 10 uM by inverted microscopic analysis; assay type: functional, cell-based
MDA-MB-231 [9] = assay: Antiproliferative activity against human MDA-MB-231 cells assessed as inhibition of cell growth measured after 48 hrs by microplate reader analysis; assay type: functional, cell-based; details: MDA-MB-231, 48 h
MDA-MB-468 [10] = assay: Antiproliferative activity against human MDA-MB-468 cells assessed as inhibition of cell growth measured after 48 hrs by microplate reader analysis; assay type: functional, cell-based; details: MDA-MB-468, 48 h
MCF7 [11] = assay: Antiproliferative activity against human MCF7 cells assessed as inhibition of cell growth measured after 48 hrs by microplate reader analysis; assay type: functional, cell-based; details: MCF7, 48 h
[12] = Selectivity index, ratio of LD50 for E6/E7 immortalized human HNME cells to IC50 for human MDA-MB-231 cells
[13] = Selectivity index, ratio of LD50 for E6/E7 immortalized human HNME cells to IC50 for human MDA-MB-468 cells
[14] = Selectivity index, ratio of LD50 for E6/E7 immortalized human HNME cells to IC50 for human MCF7 cells
MDA-MB-231 [15] = assay: Cell cycle arrest in human MDA-MB-231 cells assessed as accumulation at S phase at 10 uM measured after 48 hrs by propidium iodide staining-based flow cytometric analysis relative to control; assay type: functional
MDA-MB-468 [16] = assay: Cell cycle arrest in human MDA-MB-468 cells assessed as accumulation at S phase at 10 uM measured after 48 hrs by propidium iodide staining-based flow cytometric analysis relative to control; assay type: functional
MDA-MB-231 [17] = assay: Antiinvasive activity in human MDA-MB-231 cells assessed as reduction in 10% FBS-induced cell invasion at 10 uM by crystal violet staining based matrigel assay relative to control; assay type: functional; set-up: scale not given: the % may be the effect or the level left
Chorioallantoic membrane = assay: Antiangiogenic activity in Leghorn chicken fertilized egg chorioallantoic membrane assessed as reduction in number of blood vessels at 4 ug measured after 4 days by microscopic analysis; assay type: functional, tissue-based; details: Gallus gallus
MDA-MB-231 [18] = assay: Inhibition of anchorage-independent colony formation in human MDA-MB-231 cells at 5 uM measured upto 21 days by soft agar colony formation assay; assay type: functional, cell-based
MDA-MB-468 [19] = assay: Inhibition of anchorage-independent colony formation in human MDA-MB-468 cells at 5 uM measured upto 21 days by soft agar colony formation assay; assay type: functional, cell-based
MCF7 [20] = assay: Inhibition of anchorage-independent colony formation in human MCF7 cells at 5 uM measured upto 21 days by soft agar colony formation assay; assay type: functional, cell-based
MDA-MB-468 [21] = assay: Antiinvasive activity in human MDA-MB-468 cells assessed as reduction in 10% FBS-induced cell invasion at 10 uM by crystal violet staining based matrigel assay relative to control; assay type: functional
MCF7 [22] = assay: Antiinvasive activity in human MCF7 cells assessed as reduction in 10% FBS-induced cell invasion at 10 uM by crystal violet staining based matrigel assay relative to control; assay type: functional

## COc1ccccc1C(=O)/C=C/c1ccc(N(CCCl)CCCl)cc1
MDA-MB-231 [1]
  Activity: Active
MDA-MB-231 [2]
  IC50: 2.86 µM

## CS(=O)(=O)c1ccc(C(=O)/C=C/c2ccc(N(CCCl)CCCl)cc2)cc1
[3]
  CC50 at 48 h: 29.4 µM
MDA-MB-231 [4]
  growth inhibition (GI): Active
MCF7 [5]
  growth inhibition (GI): Active
MDA-MB-231 [6]
  Activity: Active
MDA-MB-468 [7]
  Activity: Active
MCF7 [8]
  Activity: Active
MDA-MB-231 [1]
  Activity: Active
MDA-MB-231 [9]
  IC50: 7.44 µM
MDA-MB-468 [10]
  IC50: 13.3 µM
MCF7 [11]
  IC50: 14.1 µM
[12]
  Ratio LD50/IC50: 3.95
[13]
  Ratio LD50/IC50: 2.21
[14]
  Ratio LD50/IC50: 2.08
MDA-MB-231 [15]
  Activity: 28.7%
MDA-MB-468 [16]
  Activity: 46.8%
MDA-MB-231 [17]
  Activity: 80%
MDA-MB-231 [2]
  IC50: 6.14 µM
Chorioallantoic membrane
  Activity: Active
MDA-MB-231 [18]
  inhibition: Active
MDA-MB-468 [19]
  colony formation inhibition (active/inactive): Active
MCF7 [20]
  colony formation inhibition (activity call): Active
MDA-MB-468 [21]
  Activity: Active
MCF7 [22]
  Activity: Active

## COc1cccc(C(=O)/C=C/c2ccc(N3CCCC3)cc2)c1
MDA-MB-231 [1]
  Activity: Active
MDA-MB-231 [2]
  IC50: 1.99 µM

## CSc1ccc(C(=O)/C=C/c2ccc(N3CCOCC3)cc2)cc1
MDA-MB-231 [1]
  Activity: Active
MDA-MB-231 [2]
  IC50: 4.8 µM
Chorioallantoic membrane
  Activity: Active
